Measurements: PMC6109843, “Novel Quinazolinone Inhibitors of ALK2 Flip between Alternate Binding Modes: Structure–Activity Relationship, Structural Characterization, Kinase Profiling, and Cellular Proof of Concept” (Journal of Medicinal Chemistry, 2018)

Columns and labels:
Assay in all cases: DiscoverX scanEDGE kinase panel
Type in all cases: binding
Settings in all cases: Cmpd Conc 1000 nM, read-out: % Ctrl
[1] = biological target: T1, BMPR1B (ALK6) (Homo sapiens, UniProt O00238)
T1 construct: purchased DiscoverX (DiscoveRx) KINOMEscan scanEDGE / KdELECT
Source text: (§1) We hypothesized that inhibitors of the normal and flipped modes would display distinct selectivity profiles.
(§2) 1. 16 and 21 kinome selectivity data
(§3) (P – phosphorylated; nP – nonphosphorylated; % Ctrl values show the % of DNAEtagged
(§4) kinase which was not displaced from a solid supported ligand by a test compound relative to
(§5) untreated control, quantified by qPCR).
(§6) Please note: ALKs 1, 2, 3, 4, 5 and 6 are listed by their gene symbols: ACVRL1 (ALK1), ACVR1
(§7) (ALK2), BMPR1A (ALK3), ACVR1B (ALK4), TGFBR1 (ALK5) and BMPR1B (ALK6)
(§8) Cmpd DiscoverX Gene Symbol Entrez Gene Symbol % Ctrl Cmpd Conc (nM)

[2] = biological target: T2, EGFR (Homo sapiens, UniProt P00533)
T2 construct: purchased DiscoverX (DiscoveRx) KINOMEscan scanEDGE / KdELECT
Source text: as §1, §2, §3, §4, §5, §6, §7, §8

[3] = biological target: T3, SRC (Homo sapiens, UniProt P12931)
T3 construct: purchased DiscoverX (DiscoveRx) KINOMEscan scanEDGE / KdELECT
Source text: as §1, §2, §3, §4, §5, §6, §7, §8

[4] = biological target: T4, PIK3C2B (Homo sapiens, UniProt O00750)
T4 construct: purchased DiscoverX (DiscoveRx) KINOMEscan scanEDGE / KdELECT
Source text: as §1, §2, §3, §4, §5, §6, §7, §8

[5] = biological target: T5, BMPR2 (Homo sapiens, UniProt Q13873)
T5 construct: purchased DiscoverX (DiscoveRx) KINOMEscan scanEDGE / KdELECT
Source text: as §1, §2, §3, §4, §5, §6, §7, §8

[6] = biological target: T6, BMPR1A (ALK3) (Homo sapiens, UniProt P36894)
T6 construct: purchased DiscoverX (DiscoveRx) KINOMEscan scanEDGE / KdELECT
Source text: as §1, §2, §3, §4, §5, §6, §7, §8

[7] = biological target: T7, CDK11 (Homo sapiens, UniProt Q9BWU1)
T7 construct: purchased DiscoverX (DiscoveRx) KINOMEscan scanEDGE / KdELECT
Source text: as §1, §2, §3, §4, §5, §6, §7, §8

[8] = biological target: T8, PAK4 (Homo sapiens, UniProt O96013)
T8 construct: purchased DiscoverX (DiscoveRx) KINOMEscan scanEDGE / KdELECT
Source text: as §1, §2, §3, §4, §5, §6, §7, §8

[9] = biological target: T9, PIM3 (Homo sapiens, UniProt Q86V86)
T9 construct: purchased DiscoverX (DiscoveRx) KINOMEscan scanEDGE / KdELECT
Source text: as §1, §2, §3, §4, §5, §6, §7, §8

[10] = biological target: T10, KIT(D816H) (Homo sapiens, UniProt P10721, D816H)
T10 construct: purchased DiscoverX (DiscoveRx) KINOMEscan scanEDGE / KdELECT
Source text: as §1, §2, §3, §4, §5, §6, §7, §8

[11] = biological target: T11, TNK1 (Homo sapiens, UniProt Q13470)
T11 construct: purchased DiscoverX (DiscoveRx) KINOMEscan scanEDGE / KdELECT
Source text: as §1, §2, §3, §4, §5, §6, §7, §8

[12] = biological target: T12, PCTK1 (Homo sapiens, UniProt Q00536)
T12 construct: purchased DiscoverX (DiscoveRx) KINOMEscan scanEDGE / KdELECT
Source text: as §1, §2, §3, §4, §5, §6, §7, §8

[13] = biological target: T13, PLK3 (Homo sapiens, UniProt Q9H4B4)
T13 construct: purchased DiscoverX (DiscoveRx) KINOMEscan scanEDGE / KdELECT
Source text: as §1, §2, §3, §4, §5, §6, §7, §8

[14] = biological target: T14, MAP3K4 (Homo sapiens, UniProt Q9Y6R4)
T14 construct: purchased DiscoverX (DiscoveRx) KINOMEscan scanEDGE / KdELECT
Source text: as §1, §2, §3, §4, §5, §6, §7, §8

[15] = biological target: T15, RAF1 (Homo sapiens, UniProt P04049)
T15 construct: purchased DiscoverX
Source text: as §1, §2, §3, §4, §5, §6, §7, §8

[16] = biological target: T16, ULK2 (Homo sapiens, UniProt Q8IYT8)
T16 construct: purchased DiscoverX (DiscoveRx) KINOMEscan scanEDGE / KdELECT
Source text: as §1, §2, §3, §4, §5, §6, §7, §8

[17] = biological target: T17, DCAMKL1 (Homo sapiens, UniProt O15075)
T17 construct: purchased DiscoverX (DiscoveRx) KINOMEscan scanEDGE / KdELECT
Source text: as §1, §2, §3, §4, §5, §6, §7, §8

[18] = biological target: T18, PIM1 (Homo sapiens, UniProt P11309)
T18 construct: purchased DiscoverX (DiscoveRx) KINOMEscan scanEDGE / KdELECT
Source text: as §1, §2, §3, §4, §5, §6, §7, §8

[19] = biological target: T19, MEK1 (Homo sapiens, UniProt Q02750)
T19 construct: purchased DiscoverX (DiscoveRx) KINOMEscan scanEDGE / KdELECT
Source text: as §1, §2, §3, §4, §5, §6, §7, §8

[20] = biological target: T20, AURKB (Homo sapiens, UniProt Q96GD4)
T20 construct: purchased DiscoverX (DiscoveRx) KINOMEscan scanEDGE / KdELECT
Source text: as §1, §2, §3, §4, §5, §6, §7, §8

[21] = biological target: T21, IKKEalpha (Homo sapiens, UniProt O15111)
T21 construct: purchased DiscoverX (DiscoveRx) KINOMEscan scanEDGE / KdELECT
Source text: as §1, §2, §3, §4, §5, §6, §7, §8

[22] = biological target: T22, JNK3 (Homo sapiens, UniProt P53779)
T22 construct: purchased DiscoverX (DiscoveRx) KINOMEscan scanEDGE / KdELECT
Source text: as §1, §2, §3, §4, §5, §6, §7, §8

[23] = biological target: T23, CSF1R (Homo sapiens, UniProt P07333)
T23 construct: purchased DiscoverX (DiscoveRx) KINOMEscan scanEDGE / KdELECT
Source text: as §1, §2, §3, §4, §5, §6, §7, §8

[24] = biological target: T24, p38Ebeta (Homo sapiens, UniProt Q15759)
T24 construct: purchased DiscoverX (DiscoveRx) KINOMEscan scanEDGE / KdELECT
Source text: as §1, §2, §3, §4, §5, §6, §7, §8

[25] = biological target: T25, ABL1EnP (Homo sapiens, UniProt P00519)
T25 construct: purchased DiscoverX (DiscoveRx) KINOMEscan scanEDGE / KdELECT
Source text: as §1, §2, §3, §4, §5, §6, §7, §8

[26] = biological target: T26, RET (Homo sapiens, UniProt P07949)
T26 construct: purchased DiscoverX (DiscoveRx) KINOMEscan scanEDGE / KdELECT
Source text: as §1, §2, §3, §4, §5, §6, §7, §8

[27] = biological target: T27, ACVR2A (Homo sapiens, UniProt P27037)
T27 construct: purchased DiscoverX (DiscoveRx) KINOMEscan scanEDGE / KdELECT
Source text: as §1, §2, §3, §4, §5, §6, §7, §8

[28] = biological target: T28, ROCK2 (Homo sapiens, UniProt O75116)
T28 construct: purchased DiscoverX (DiscoveRx) KINOMEscan scanEDGE / KdELECT
Source text: as §1, §2, §3, §4, §5, §6, §7, §8

[29] = biological target: T29, FGFR2 (Homo sapiens, UniProt P21802)
T29 construct: purchased DiscoverX (DiscoveRx) KINOMEscan scanEDGE / KdELECT
Source text: as §1, §2, §3, §4, §5, §6, §7, §8

[30] = biological target: T30, PIK3CA (Homo sapiens, UniProt P42336)
T30 construct: purchased DiscoverX (DiscoveRx) KINOMEscan scanEDGE / KdELECT
Source text: as §1, §2, §3, §4, §5, §6, §7, §8

[31] = biological target: T31, PAK1 (Homo sapiens, UniProt Q13153)
T31 construct: purchased DiscoverX (DiscoveRx) KINOMEscan scanEDGE / KdELECT
Source text: as §1, §2, §3, §4, §5, §6, §7, §8

[32] = biological target: T32, FGFR3 (Homo sapiens, UniProt P22607)
T32 construct: purchased DiscoverX (DiscoveRx) KINOMEscan scanEDGE / KdELECT
Source text: as §1, §2, §3, §4, §5, §6, §7, §8

[33] = biological target: T33, VEGFR2 (Homo sapiens, UniProt P35968)
T33 construct: purchased DiscoverX (DiscoveRx) KINOMEscan scanEDGE / KdELECT
Source text: as §1, §2, §3, §4, §5, §6, §7, §8

[34] = biological target: T34, MARK3 (Homo sapiens, UniProt P27448)
T34 construct: purchased DiscoverX (DiscoveRx) KINOMEscan scanEDGE / KdELECT
Source text: as §1, §2, §3, §4, §5, §6, §7, §8

[35] = biological target: T35, JNK2 (Homo sapiens, UniProt P45984)
T35 construct: purchased DiscoverX (DiscoveRx) KINOMEscan scanEDGE / KdELECT
Source text: as §1, §2, §3, §4, §5, §6, §7, §8

[36] = biological target: T36, BRAF(V600E) (Homo sapiens, UniProt P15056, V600E)
T36 construct: purchased DiscoverX (DiscoveRx) KINOMEscan scanEDGE / KdELECT
Source text: as §1, §2, §3, §4, §5, §6, §7, §8

[37] = biological target: T37, EPHA2 (Homo sapiens, UniProt P29317)
T37 construct: purchased DiscoverX (DiscoveRx) KINOMEscan scanEDGE / KdELECT
Source text: as §1, §2, §3, §4, §5, §6, §7, §8

[38] = biological target: T38, MEK2 (Homo sapiens, UniProt P36507)
T38 construct: purchased DiscoverX (DiscoveRx) KINOMEscan scanEDGE / KdELECT
Source text: as §1, §2, §3, §4, §5, §6, §7, §8

[39] = biological target: T39, CDK3 (Homo sapiens, UniProt Q00526)
T39 construct: purchased DiscoverX (DiscoveRx) KINOMEscan scanEDGE / KdELECT
Source text: as §1, §2, §3, §4, §5, §6, §7, §8

[40] = biological target: T40, CDK2 (Homo sapiens, UniProt P24941)
T40 construct: purchased DiscoverX (DiscoveRx) KINOMEscan scanEDGE / KdELECT
Source text: as §1, §2, §3, §4, §5, §6, §7, §8

T32 sequence (P22607 23-806): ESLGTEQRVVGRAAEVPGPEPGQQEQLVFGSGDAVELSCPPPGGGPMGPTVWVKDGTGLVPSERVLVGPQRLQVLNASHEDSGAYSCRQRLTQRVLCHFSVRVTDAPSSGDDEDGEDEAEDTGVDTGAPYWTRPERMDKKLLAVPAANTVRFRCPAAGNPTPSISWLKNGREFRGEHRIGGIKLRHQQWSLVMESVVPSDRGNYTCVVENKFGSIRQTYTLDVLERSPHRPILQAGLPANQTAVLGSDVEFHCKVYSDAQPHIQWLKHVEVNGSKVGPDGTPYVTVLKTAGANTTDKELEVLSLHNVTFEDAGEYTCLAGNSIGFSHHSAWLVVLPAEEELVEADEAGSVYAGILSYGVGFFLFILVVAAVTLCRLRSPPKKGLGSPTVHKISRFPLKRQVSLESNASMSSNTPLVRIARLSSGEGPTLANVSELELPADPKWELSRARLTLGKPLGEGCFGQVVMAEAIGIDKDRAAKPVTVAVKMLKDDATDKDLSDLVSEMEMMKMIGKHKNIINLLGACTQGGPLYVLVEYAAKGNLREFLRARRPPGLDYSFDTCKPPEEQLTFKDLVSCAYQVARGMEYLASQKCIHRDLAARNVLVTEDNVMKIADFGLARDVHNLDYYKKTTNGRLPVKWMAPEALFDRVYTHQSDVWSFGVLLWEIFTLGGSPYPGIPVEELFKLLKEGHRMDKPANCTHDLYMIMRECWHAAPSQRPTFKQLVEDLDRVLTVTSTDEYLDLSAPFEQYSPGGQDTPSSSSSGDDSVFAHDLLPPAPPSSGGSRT
T36 sequence (P15056 whole entry V600E): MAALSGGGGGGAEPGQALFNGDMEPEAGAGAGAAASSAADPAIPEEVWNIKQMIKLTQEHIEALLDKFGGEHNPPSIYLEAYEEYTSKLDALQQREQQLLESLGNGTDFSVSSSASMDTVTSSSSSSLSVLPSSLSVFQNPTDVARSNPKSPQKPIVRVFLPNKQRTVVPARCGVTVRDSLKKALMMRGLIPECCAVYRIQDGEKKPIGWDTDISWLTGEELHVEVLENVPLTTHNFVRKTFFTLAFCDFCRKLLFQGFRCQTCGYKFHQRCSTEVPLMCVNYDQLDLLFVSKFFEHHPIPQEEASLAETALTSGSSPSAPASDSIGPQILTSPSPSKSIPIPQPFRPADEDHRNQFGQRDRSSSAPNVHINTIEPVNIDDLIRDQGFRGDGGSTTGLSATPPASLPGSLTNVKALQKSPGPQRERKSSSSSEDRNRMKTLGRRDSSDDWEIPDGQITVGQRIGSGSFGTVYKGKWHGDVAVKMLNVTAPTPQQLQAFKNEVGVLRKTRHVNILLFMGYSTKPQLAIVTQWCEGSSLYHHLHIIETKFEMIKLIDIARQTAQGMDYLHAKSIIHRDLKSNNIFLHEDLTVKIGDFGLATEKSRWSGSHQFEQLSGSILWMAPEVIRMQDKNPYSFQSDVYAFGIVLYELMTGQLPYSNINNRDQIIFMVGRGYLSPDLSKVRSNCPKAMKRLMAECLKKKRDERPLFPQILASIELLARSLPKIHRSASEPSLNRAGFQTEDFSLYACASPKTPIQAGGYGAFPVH
T2 sequence (P00533 25-1210): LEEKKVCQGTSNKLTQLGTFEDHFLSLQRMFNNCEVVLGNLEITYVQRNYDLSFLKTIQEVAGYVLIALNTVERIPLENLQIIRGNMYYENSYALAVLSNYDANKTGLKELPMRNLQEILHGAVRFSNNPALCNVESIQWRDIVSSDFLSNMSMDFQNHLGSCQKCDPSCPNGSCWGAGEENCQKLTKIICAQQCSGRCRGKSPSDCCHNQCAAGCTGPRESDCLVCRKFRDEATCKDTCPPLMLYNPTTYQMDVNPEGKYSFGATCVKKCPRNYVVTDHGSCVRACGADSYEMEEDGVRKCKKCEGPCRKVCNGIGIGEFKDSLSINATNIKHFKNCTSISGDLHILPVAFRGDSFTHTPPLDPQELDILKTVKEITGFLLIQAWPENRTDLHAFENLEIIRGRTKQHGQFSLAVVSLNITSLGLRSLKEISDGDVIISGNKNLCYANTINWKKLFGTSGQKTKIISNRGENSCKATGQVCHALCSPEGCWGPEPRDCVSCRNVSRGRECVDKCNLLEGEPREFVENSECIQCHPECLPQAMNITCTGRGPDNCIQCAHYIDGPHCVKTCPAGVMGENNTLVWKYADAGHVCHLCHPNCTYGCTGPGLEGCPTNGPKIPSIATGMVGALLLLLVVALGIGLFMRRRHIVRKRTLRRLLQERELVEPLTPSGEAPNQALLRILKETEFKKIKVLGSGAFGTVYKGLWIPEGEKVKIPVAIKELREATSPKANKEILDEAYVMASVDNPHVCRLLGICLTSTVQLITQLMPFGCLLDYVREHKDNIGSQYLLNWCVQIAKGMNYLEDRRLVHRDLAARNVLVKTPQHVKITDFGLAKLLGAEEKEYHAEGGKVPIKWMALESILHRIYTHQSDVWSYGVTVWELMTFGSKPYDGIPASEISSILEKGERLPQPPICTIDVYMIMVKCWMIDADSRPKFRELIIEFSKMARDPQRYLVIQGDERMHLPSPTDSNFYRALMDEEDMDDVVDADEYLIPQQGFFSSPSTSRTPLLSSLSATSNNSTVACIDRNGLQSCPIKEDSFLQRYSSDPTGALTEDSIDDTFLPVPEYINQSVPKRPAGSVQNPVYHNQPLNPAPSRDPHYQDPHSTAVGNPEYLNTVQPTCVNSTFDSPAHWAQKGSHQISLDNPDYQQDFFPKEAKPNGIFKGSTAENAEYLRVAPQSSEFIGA
T38 sequence (P36507 whole entry): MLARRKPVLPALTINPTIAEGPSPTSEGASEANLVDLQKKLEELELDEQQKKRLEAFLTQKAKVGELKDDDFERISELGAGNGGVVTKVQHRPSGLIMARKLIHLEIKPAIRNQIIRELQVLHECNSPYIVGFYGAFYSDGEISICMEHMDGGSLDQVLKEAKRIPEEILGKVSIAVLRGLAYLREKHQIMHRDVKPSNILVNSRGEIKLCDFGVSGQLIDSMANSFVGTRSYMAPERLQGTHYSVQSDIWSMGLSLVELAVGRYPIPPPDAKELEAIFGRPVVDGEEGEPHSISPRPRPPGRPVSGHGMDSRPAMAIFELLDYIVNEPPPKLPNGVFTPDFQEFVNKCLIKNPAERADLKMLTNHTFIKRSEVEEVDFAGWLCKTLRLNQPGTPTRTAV
T24 sequence (Q15759 whole entry): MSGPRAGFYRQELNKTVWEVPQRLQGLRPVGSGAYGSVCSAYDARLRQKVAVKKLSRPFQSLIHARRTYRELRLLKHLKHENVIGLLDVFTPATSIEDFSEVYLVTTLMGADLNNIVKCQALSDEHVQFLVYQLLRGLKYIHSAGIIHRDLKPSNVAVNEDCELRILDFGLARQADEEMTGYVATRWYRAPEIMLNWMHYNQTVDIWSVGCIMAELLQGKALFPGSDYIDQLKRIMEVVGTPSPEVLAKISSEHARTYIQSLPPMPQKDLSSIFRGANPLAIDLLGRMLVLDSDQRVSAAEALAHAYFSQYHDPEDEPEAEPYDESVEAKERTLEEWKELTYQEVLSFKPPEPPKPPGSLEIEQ
T37 sequence (P29317 24-976): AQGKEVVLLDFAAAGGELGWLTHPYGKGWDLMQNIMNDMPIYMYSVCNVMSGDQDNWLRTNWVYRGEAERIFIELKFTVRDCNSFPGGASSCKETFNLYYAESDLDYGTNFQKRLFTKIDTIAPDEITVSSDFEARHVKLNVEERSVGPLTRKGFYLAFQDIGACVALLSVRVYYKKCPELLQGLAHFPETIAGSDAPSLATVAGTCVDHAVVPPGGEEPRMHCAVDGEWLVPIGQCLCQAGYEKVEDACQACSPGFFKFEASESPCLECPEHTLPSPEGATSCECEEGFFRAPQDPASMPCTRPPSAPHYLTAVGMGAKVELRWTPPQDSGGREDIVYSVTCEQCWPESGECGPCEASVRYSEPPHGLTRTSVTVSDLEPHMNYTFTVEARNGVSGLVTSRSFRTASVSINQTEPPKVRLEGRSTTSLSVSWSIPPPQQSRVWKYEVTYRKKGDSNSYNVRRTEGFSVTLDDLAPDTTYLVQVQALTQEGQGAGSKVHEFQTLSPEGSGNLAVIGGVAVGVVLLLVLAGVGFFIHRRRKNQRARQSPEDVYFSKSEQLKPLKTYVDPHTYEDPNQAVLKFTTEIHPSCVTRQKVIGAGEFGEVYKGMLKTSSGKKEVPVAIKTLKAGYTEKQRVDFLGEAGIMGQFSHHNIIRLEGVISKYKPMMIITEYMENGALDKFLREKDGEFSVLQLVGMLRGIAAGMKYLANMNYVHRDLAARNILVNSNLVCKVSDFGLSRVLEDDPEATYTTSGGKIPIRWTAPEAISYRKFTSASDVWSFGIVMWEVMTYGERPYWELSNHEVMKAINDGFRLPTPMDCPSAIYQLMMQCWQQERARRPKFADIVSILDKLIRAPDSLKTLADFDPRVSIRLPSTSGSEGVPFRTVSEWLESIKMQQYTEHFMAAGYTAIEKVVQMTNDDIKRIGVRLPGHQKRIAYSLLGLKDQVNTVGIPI

O=c1c2cc(-c3ccnc4ccccc34)ccc2ncn1-c1ccc(N2CCOCC2)cc1 [compound 16, 3-(4-Morpholinophenyl)-6-(quinolin-4-yl)quinazolin-4(3H)-one]
remaining binding at 1 µM [1]: 4.1% | remaining binding at 1 µM [2]: 71% | remaining binding at 1 µM [3]: 88% | remaining binding at 1 µM [4]: 100% | remaining binding at 1 µM [5]: 64% | remaining binding at 1 µM [6]: 77% | remaining binding at 1 µM [7]: 68% | remaining binding at 1 µM [8]: 97% | remaining binding at 1 µM [9]: 100% | remaining binding at 1 µM [10]: 100% | remaining binding at 1 µM [11]: 78% | remaining binding at 1 µM [12]: 87% | remaining binding at 1 µM [13]: 90% | remaining binding at 1 µM [14]: 100% | remaining binding at 1 µM [15]: 88% | remaining binding at 1 µM [16]: 93% | remaining binding at 1 µM [17]: 92% | remaining binding at 1 µM [18]: 92% | remaining binding at 1 µM [19]: 89% | remaining binding at 1 µM [20]: 97% | remaining binding at 1 µM [21]: 86% | remaining binding at 1 µM [22]: 98% | remaining binding at 1 µM [23]: 91% | remaining binding at 1 µM [24]: 100% | remaining binding at 1 µM [25]: 76% | remaining binding at 1 µM [26]: 92% | remaining binding at 1 µM [27]: 100% | remaining binding at 1 µM [28]: 100% | remaining binding at 1 µM [29]: 100% | remaining binding at 1 µM [30]: 100% | remaining binding at 1 µM [31]: 71% | remaining binding at 1 µM [32]: 100% | remaining binding at 1 µM [33]: 95% | remaining binding at 1 µM [34]: 90% | remaining binding at 1 µM [35]: 100% | remaining binding at 1 µM [36]: 58% | remaining binding at 1 µM [37]: 100% | remaining binding at 1 µM [38]: 85% | remaining binding at 1 µM [39]: 100% | remaining binding at 1 µM [40]: 95%
